{"source": "patent US8691755B2", "about": "“Pegylated C-peptide” (Cebix AB, priority 2010, dated 2014)", "key": {"[1]": {"experiment": "Repeated-dose GLP toxicology studies with unmodified C-peptide, continuous s.c. infusion", "assay_type": "in vivo, Cynomolgus monkey", "details": "for No Observed Effect Level: continuous s.c. infusion; for level at time molar: cynomolgus monkey, plasma, sc, read-out: C-peptide Css", "procedure": "(§1) In the five GLP toxicology studies conducted with non-PEGylated C-peptide for up to 4 weeks in rats and 13 weeks in Cynomolgus monkeys, the C-peptide was continuously infused s.c. via implanted osmotic pumps. The plasma concentration of C-peptide was measured periodically throughout the studies and a steady-state concentration (Css) over the duration of exposure has been determined for each study as shown in Table E6."}, "[2]": {"experiment": "Repeated-dose GLP toxicology studies with unmodified C-peptide, continuous s.c. infusion", "assay_type": "in vivo, Sprague Dawley rat", "details": "for No Observed Effect Level: continuous s.c. infusion; for level at time molar: Sprague Dawley, rat, plasma, sc, read-out: C-peptide Css", "procedure": "as §1"}, "[3]": {"experiment": "PK of unmodified C-peptide in beagle dogs, single S.C. dose (first PK study)", "method": "A pharmacokinetic (PK) study was conducted to determine the C-peptide PK profile with unmodified C-peptide in beagle dogs.\nPlasma samples were obtained after centrifugation of the blood (3,000 rpm for 10 minutes) and stored at −80° C. until analysis. […] Results were expressed as C-peptide concentrations. For the PK analysis, the below quantitation level (BQL) was treated as zero and nominal time points were used for all calculations. PK parameters were determined by standard model independent methods based on the individual plasma concentration-time data for each animal using model 200 in WinNonlin Professional 5.2.1 (Pharsight Corp., Mountain View, Calif.)."}, "[4]": {"details": "both, beagle, dog, plasma, sc, 0.5 mg/kg"}}, "note": "Where two headings read alike, the source gives them in different places.", "data": [{"smiles": "CC(C)C[C@H](NC(=O)[C@H](C)NC(=O)[C@H](CC(C)C)NC(=O)[C@@H]1CCCN1C(=O)[C@H](CCC(N)=O)NC(=O)[C@H](CC(C)C)NC(=O)[C@H](CO)NC(=O)CNC(=O)[C@H](C)NC(=O)CNC(=O)[C@@H]1CCCN1C(=O)CNC(=O)CNC(=O)CNC(=O)[C@H](CC(C)C)NC(=O)[C@H](CCC(=O)O)NC(=O)[C@@H](NC(=O)[C@H](CCC(N)=O)NC(=O)CNC(=O)[C@@H](NC(=O)[C@H](CCC(N)=O)NC(=O)[C@H](CC(C)C)NC(=O)[C@H](CC(=O)O)NC(=O)[C@H](CCC(=O)O)NC(=O)[C@H](C)NC(=O)[C@@H](N)CCC(=O)O)C(C)C)C(C)C)C(=O)N[C@@H](CCC(=O)O)C(=O)NCC(=O)N[C@@H](CO)C(=O)N[C@@H](CC(C)C)C(=O)N[C@@H](CCC(N)=O)C(=O)O", "note": "[unmodified C-peptide]", "values": [{"measurement": "No Observed Effect Level", "setting": "[1]; 13 weeks", "result": 3.6, "unit": "mg/kg/day"}, {"measurement": "No Observed Effect Level", "setting": "[1]; 14 days", "result": 2, "unit": "mg/kg/day"}, {"measurement": "level at time molar", "setting": "[1]; 13 weeks at NOEL 3.6 mg/kg/day, mean of days 2, 28, 37/38, 56, 91", "result": 40, "unit": "nM"}, {"measurement": "level at time molar", "setting": "[1]; 14 days at NOEL 2 mg/kg/day, mean of days 2, 10, 14", "result": 84, "unit": "nM"}, {"measurement": "No Observed Effect Level", "setting": "[2]; 4 weeks", "result": 0.5, "unit": "mg/kg/day"}, {"measurement": "No Observed Effect Level", "setting": "[2]; 14 days", "result": 2, "unit": "mg/kg/day"}, {"measurement": "level at time molar", "setting": "[2]; 0.5 mg/kg/day, 4 weeks at NOEL 0.5 mg/kg/day, mean of days 2, 14, 28", "result": 4.2, "unit": "nM"}, {"measurement": "level at time molar", "setting": "[2]; 2 mg/kg/day, 14 days at NOEL 2 mg/kg/day, mean of days 2, 10, 14", "result": 27, "unit": "nM"}, {"measurement": "AUC(0-t)", "setting": "[3]; [4]", "result": 1860, "unit": "ng·h/mL"}, {"measurement": "Cmax", "setting": "[3]; [4]", "result": 757, "unit": "ng/mL"}, {"measurement": "circulating levels of C-peptide below quantitation level (BQL)", "setting": "[3]; single S.C. dose 0.5 mg/kg", "result": "BQL within half a day"}, {"measurement": "tolerability (clinical abnormalities)", "setting": "[3]; single S.C. dose 0.5 mg/kg", "result": "well tolerated"}]}]}
